Source: patent US20240327406A1, “POTASSIUM CHANNEL MODULATORS” (Autifony Therapeutics Limited, priority 2021, published 2024)

What was measured:
[1] = In vitro metabolic stability, rat liver microsomes; type: in vitro ADME; settings: CLint expressed as mL/min/g liver
Experimental: (§1) The objective of this study was to determine metabolic stability of test items in rat and human liver microsomes. Verapamil and dextromethorphan were used as positive controls for microsomal incubation.
(§2) Incubation medium was prepared by combining 11.2 mL of potassium phosphate monobasic and 38.8 mL of potassium phosphate dibasic, diluted to 1 L with water. Cryopreserved microsomes were thawed and kept on ice until use. Microsomes were then diluted in incubation to a protein concentration of 0.56 mg/mL. […]
(§3) NADPH regenerating system solution was prepared by dissolving 1.7 mg of NADP, 7.8 mg of G6P and 6 units of G6P-Dehydrogenase in 1 mL of 2% sodium bicarbonate solution (prepared by dissolving 20 g of NaHCO3 in 1 L of water).
(§4) Test compounds were separately dissolved in DMF to obtain 10 mM stock solutions that were further diluted in water/acetonitrile 50/50 (v/v) to obtain the corresponding 50 μM working solutions. Verapamil and dextromethorphan were dissolved in DMF in order to obtain a 10 mM verapamil solution and 10 mM dextromethorphan solution. These solutions were then diluted in the incubation medium in order to obtain a 50 μM verapamil working solution and a 50 μM dextromethorphan working solution.
(§5) 800 μL-aliquots of NADPH regenerating system were pre-warmed at 37° C. for 5 minutes. 5 μL of 50 µM test compounds, verapamil or dextromethorphan were added to 445 μL of the 0.56 mg/mL microsomes solution and the incubation mixture was pre-warmed in a 96 deep well 2 mL plate (incubation plate) at 37° C. for 5 minutes. The incubation reactions were initiated by adding 50 μL of pre-warmed NADPH regenerating system to the incubation mixtures. 50 μL aliquots were taken from incubation mixtures at: 0, 3, 6, 9, 15, and 30 minutes and the reactions were stopped by adding 100 μL of aceronitrile with the corresponding internal standard. Samples were then diluted with 120 μL of water (final organic solvent percentage at 37%) and centrifuged at 3000 rpm for 10 minutes, prior the LC-MS/MS analysis.
(§6) Metabolic stability was calculated from the peak area ratio of the remaining test compound with internal standard versus time. The intrinsic clearance (CLint) was determined from the first order elimination constant k (min^−1) (obtained from GraphPad by plotting the natural logarithm of the peak area ratio of the remaining test item with internal standard versus time), using the actual volume of the incubation V (mL), the amount of hepatocytes in the incubation M (million cells) and the hepatocellularity number per a liver Hn (120 for human).

[2] = Determination of blood and brain tissue binding (equilibrium dialysis); type: in vitro ADME, Sprague Dawley rat; settings: Sprague Dawley, 5 h at 37° C.; for fraction unbound at 5 h, 5 micromolar: 1:2 (w/v) in artificial CSF, rat brain homogenate, read-out: % FU Brain; for fraction unbound at 5 h, 0.5 micromolar: whole blood diluted 1:1 (v/v) with isotonic phosphate buffer, rat whole blood, read-out: % FU Blood
Experimental: Sprague Dawley rat whole blood, collected on the week of the experiment using K3-EDTA as an anti-coagulant, is diluted with isotonic phosphate buffer 1:1 (v/v). Sprague Dawley rat whole brain, stored frozen at −20° C., is thawed and homogenised in artificial cerebrospinal fluid (CSF) 1:2 (w/v).
An appropriate amount of test compound is dissolved in DMSO to give a 10 millimolar solution. Further dilutions, to obtain a 166.7 micromolar working solution are then prepared using 50% acetonitrile in MilliQ water. This working solution is used to spike the blood to obtain a final concentration of 0.5 micromolar in whole blood. Similarly, the working solution is used to spike brain samples to obtain a final concentration of 5 micromolar in whole brain. From these spiked blood and brain preparations, control samples (n=3), are immediately extracted and used to calculate the initial recovery of the test items.
150 microL of compound-free buffer (isotonic phosphate buffer for blood or artificial CSF buffer for brain) is dispensed in one half-well and 150 microL of spiked matrix (blood or brain) is loaded in the other half-well, with the two halves separated by a semi-permeable membrane. After an equilibration period of 5 h at 37° C., 50 microL of dialysed matrix (blood or brain) is added to 50 microL of corresponding compound-free buffer, and vice-versa for buffer, such that the volume of buffer to matrix (blood or brain) remains the same. Samples are then extracted by protein precipitation with 300 microL of acetonitrile containing rolipram (control for positive ionization mode) or diclofenac (control for negative ionization mode) as internal standards and centrifuged for 10 min at 3000 rpm. Supernatants are collected (100 microL), diluted with 27% AcN in MilliQ water (200 microL) and then injected into an HPLC-MS/MS or UPLC-MS/MS system to determine the concentration of test compound present.
Blood and brain tissue binding are then determined using the following formulas:
where Afu=apparent fraction unbound; Buffer=analyte/internal standard ratio determined in the buffer compartment; Blood=analyte/internal standard ratio determined in the blood compartment; Brain=analyte/internal standard ratio determined in the brain compartment.
where: fucr=Fraction unbound corrected; D=matrix dilution factor (D=2 for blood and D=3 for brain). then: […]

[3] = In vitro metabolic stability, human liver microsomes; type: in vitro ADME; settings: CLint expressed as mL/min/g liver
Experimental: as §1, §2, §3, §4, §5, §6

`Cc1ccc(Oc2ccc(-n3c(=O)[nH]c4cccnc43)cn2)cc1OC(F)(F)F` [Example 4, 3-[6-[4-methyl-3-(trifluoromethoxy)phenoxy]-3-pyridyl]-1H-imidazo[4,5-b]pyridin-2-one] showed a Cli rat [1] of 0.9 mL/min/g, a fraction unbound at 5 h, 5 micromolar [2] of 0.003 and a fraction unbound at 5 h, 0.5 micromolar [2] of 0.002. For the same molecule, the Cli human [3] was 0.7 mL/min/g.
Work on `O=c1[nH]c2cccnc2n1-c1cnc(Oc2cccc(OC(F)(F)F)c2)nc1` [Example 17, 3-[2-[3-(trifluoromethoxy)phenoxy]pyrimidin-5-yl]-1H-imidazo[4,5-b]pyridin-2-one] yielded a Cli rat [1] of under 0.5 mL/min/g, a fraction unbound at 5 h, 5 micromolar [2] of 0.016 and a fraction unbound at 5 h, 0.5 micromolar [2] of 0.016. It also gave a Cli human [3] of under 0.5 mL/min/g.
With `Cc1ccc(Oc2ncc(-n3c(=O)[nH]c4cccnc43)cn2)cc1OC(F)(F)F` [Example 32, 3-[2-[4-methyl-3-(trifluoromethoxy)phenoxy]pyrimidin-5-yl]-1H-imidazo[4,5-b]pyridin-2-one] the Cli rat [1] was 0.9 mL/min/g, the fraction unbound at 5 h, 5 micromolar [2] was 0.006 and the fraction unbound at 5 h, 0.5 micromolar [2] was 0.01. The Cli human [3] was 0.8 mL/min/g.
